# Experimental data: patent US7608717B2, “Sulfonyldihydroimidazopyridinone compounds as 5-hydroxytryptamine-6 ligands” (Wyeth, priority 2003, dated 2009)
# Molecular target: T1, human cloned 5-HT6 receptors (Homo sapiens, UniProt P50406)
# T1 construct: expressed in transfected cells; host or cells: HeLa cells
# Assay: 5-HT6 binding affinity ([3H]-LSD displacement, membranes of Hela cells expressing human cloned 5-HT6 receptors)
# Conditions: [3H]-LSD 3.0 nM, Hela cell membranes, 120 min at room temperature
# Protocol: The affinity of test compounds for the serotonin 5-HT6 receptor is evaluated in the following manner. Cultured Hela cells expressing human cloned 5-HT6 receptors are harvested and centrifuged at low speed (1,000×g) for 10.0 min to remove the culture media. The harvested cells are suspended in half volume of fresh physiological phosphate buffered saline solution and recentrifuged at the same speed. This operation is repeated. The collected cells are then homogenized in ten volumes of 50 mM Tris.HCl (pH 7.4) and 0.5 mM EDTA. The homogenate is centrifuged at 40,000×g for 30.0 min and the precipitate is collected. The obtained pellet is resuspended in 10 volumes of Tris.HCl buffer and recentrifuged at the same speed. The final pellet is suspended in a small volume of Tris.HCl buffer and the tissue protein content is determined in aliquots of 10-25 μl volumes. Bovine Serum Albumin is used as the standard in the protein determination according to the method described in Lowry et al., J. Biol. Chem., 193:265 (1951). The volume of the suspended cell membranes is adjusted to give a tissue protein concentration of 1.0 mg/ml of suspension. The prepared membrane suspension (10 times concentrated) is aliquoted in 1.0 ml volumes and stored at −70° C. until used in subsequent binding experiments.
# Binding experiments are performed in a 96 well microtiter plate format, in a total volume of 200 μl. […] The test compounds are added in 20.0 μl volume.
# The reaction is allowed to proceed in the dark for 120 min at room temperature, at which time, the bound ligand-receptor complex is filtered off on a 96 well unifilter with a Packard Filtermate® 196 Harvester. The bound complex caught on the filter disk is allowed to air dry and the radioactivity is measured in a Packard TopCount® equipped with six photomultiplier detectors, after the addition of 40.0 μl Microscint®-20 scintillant to each shallow well. The unifilter plate is heat-sealed and counted in a PackardTopCount® with a tritium efficiency of 31.0%.
# Binding in the presence of varying concentrations of test compound is expressed as a percentage of specific binding in the absence of test compound. The results are plotted as log % bound versus log concentration of test compound. […] A linear regression line of data points is plotted, from which the IC50 value is determined and the Ki value is determined based upon the following equation: Ki=IC50/(1+L/KD) where L is the concentration of the radioactive ligand used and KD is the dissociation constant of the ligand for the receptor, both expressed in nM.
# T1 sequence (P50406 whole entry): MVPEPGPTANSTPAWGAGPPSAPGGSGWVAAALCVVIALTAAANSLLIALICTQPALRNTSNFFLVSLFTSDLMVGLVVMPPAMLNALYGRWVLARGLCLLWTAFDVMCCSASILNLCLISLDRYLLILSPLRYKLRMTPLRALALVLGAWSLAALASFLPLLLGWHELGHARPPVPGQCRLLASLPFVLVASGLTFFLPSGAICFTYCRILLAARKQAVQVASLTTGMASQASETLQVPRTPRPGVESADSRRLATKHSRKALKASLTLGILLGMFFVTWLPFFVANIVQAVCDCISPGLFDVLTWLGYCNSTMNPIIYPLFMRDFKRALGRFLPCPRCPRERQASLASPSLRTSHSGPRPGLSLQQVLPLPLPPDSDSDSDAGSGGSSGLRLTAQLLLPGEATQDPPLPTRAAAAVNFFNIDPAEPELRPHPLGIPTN
row,Structure (SMILES),Ki [nM]
1,"CN(C)CCn1c(=O)n(S(=O)(=O)c2cccc(F)c2)c2cccnc21 [Example 4, 3-(2-dimethylaminoethyl)-1-[(3-fluorophenyl)sulfonyl]-1,3-dihydro-2H-imidazo[4,5-b]pyridin-2-one]",80
2,"CN(C)CCn1c(=O)n(S(=O)(=O)c2cccc(Br)c2)c2cccnc21 [Example 7, 1-[(3-bromophenyl)sulfonyl]-3-[2-(dimethylamino)ethyl]-1,3-dihydro-2H-imidazo[4,5-b]pyridin-2-one]",23
3,"NCCn1c(=O)n(S(=O)(=O)c2ccc(Cl)s2)c2cccnc21 [Example 14, 3-(2-Aminoethyl)-1-[(5-chlorothien-2-yl)sulfonyl]-1,3-dihydro-2H-imidazo[4,5-b]pyridin-2-one]",18
4,"NCCn1c(=O)n(S(=O)(=O)c2ccccc2)c2cccnc21 [Example 15, 3-(2-aminoethyl)-1-(phenylsulfonyl)-1,3-dihydro-2H-imidazo[4,5-b]pyridin-2-one]",44
5,"NCCn1c(=O)n(S(=O)(=O)c2cccc(Cl)c2)c2cccnc21 [Example 16, 3-(2-aminoethyl)-1-[(3-chlorophenyl)sulfonyl]-1,3-dihydro-2H-imidazo[4,5-b]pyridin-2-one]",16
6,"NCCn1c(=O)n(S(=O)(=O)c2c(Cl)nc3sccn23)c2cccnc21 [Example 17, 3-(2-aminoethyl)-1-[(6-chloroimidazo[2,1-b][1,3]thiazol-5-yl)sulfonyl]-1,3-dihydro-2H-imidazo[4,5-b]pyridin-2-one]",4
7,"NCCn1c(=O)n(S(=O)(=O)c2ccc3ccccc3c2)c2cccnc21 [Example 18, 3-(2-aminoethyl)-1-(2-naphthylsulfonyl)-1,3-dihydro-2H-imidazo[4,5-b]pyridin-2-one]",5

# Other lines, results leading:
row,Ki [nM],Structure (SMILES)
1,14,"COc1cccc(S(=O)(=O)n2c(=O)n(CCN)c3ncccc32)c1 [Example 19, 3-(2-aminoethyl)-1-[(3-methoxyphenyl)sulfonyl]-1,3-dihydro-2H-imidazo[4,5-b]pyridin-2-one]"
2,77,"NCCn1c(=O)n(S(=O)(=O)c2ccccc2F)c2cccnc21 [Example 20, 3-(2-aminoethyl)-1-[(2-fluorophenyl)sulfonyl]-1,3-dihydro-2H-imidazo[4,5-b]pyridin-2-one]"
3,55,"NCCn1c(=O)n(S(=O)(=O)c2ccccc2Cl)c2cccnc21 [Example 22, 3-(2-aminoethyl)-1-[(2-chlorophenyl)sulfonyl]-1,3-dihydro-2H-imidazo[4,5-b]pyridin-2-one]"
4,17,"NCCn1c(=O)n(S(=O)(=O)c2ccc(Cl)cc2)c2cccnc21 [Example 23, 3-(2-aminoethyl)-1-[(4-chlorophenyl)sulfonyl]-1,3-dihydro-2H-imidazo[4,5-b]pyridin-2-one]"
5,9,"NCCn1c(=O)n(S(=O)(=O)c2cccc(Cl)c2Cl)c2cccnc21 [Example 24, 3-(2-aminoethyl)-1-[(2,3-dichlorophenyl)sulfonyl]-1,3-dihydro-2H-imidazo[4,5-b]pyridin-2-one]"
6,12,"NCCn1c(=O)n(S(=O)(=O)c2cccc(Br)c2)c2cccnc21 [Example 25, 3-(2-aminoethyl)-1-[(3-bromophenyl)sulfonyl]-1,3-dihydro-2H-imidazo[4,5-b]pyridin-2-one]"
7,9,"NCCn1c(=O)n(S(=O)(=O)c2ccc(Br)s2)c2cccnc21 [Example 26, 3-(2-aminoethyl)-1-[(5-bromothien-2-yl)sulfonyl]-1,3-dihydro-2H-imidazo[4,5-b]pyridin-2-one]"
8,22,"NCCn1c(=O)n(S(=O)(=O)c2cc(Cl)sc2Cl)c2cccnc21 [Example 27, 3-(2-aminoethyl)-1-[(2,5-dichlorothien-3-yl)sulfonyl]-1,3-dihydro-2H-imidazo[4,5-b]pyridin-2-one]"
